# pIC50: −log10 of the molar value. Read-outs that look alike come from different tables or passages of the source.
# How the values were obtained:
# [1] = target: Beta Secretase enzyme (BACE1) (Homo sapiens, UniProt P56817); assay: In vitro enzymatic BACE FRET assay; type: biochemical; details: read-out: BACE1 FRET assay IC50
# In short: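 BACE1 cleavage of a 50 nM fluorophore/quencher peptide FRET substrate ran for one hour in 0.05 M acetate pH 4.2, 10% DMSO, 100 uM genapol. Tris buffer raised pH to neutrality to stop the reaction before fluorescence was read (excitation 488 nm, […]).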
# [2] = system: Aβ40 in conditioned medium of cells stably expressing Amyloid Precursor Protein (APP); assay: In vitro BACE cell-based assay (HEK cell assay), Aβ40 sandwich ELISA; details: Homo sapiens, HEK293
# In short: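 APP-stably expressing cells (40K/well, grown 24 h in DMEM/10% FBS) were treated 24 h with compounds in 10-point dose response starting at 100 μM or 10 μM, 0.1% DMSO final. Secreted Aβ40 was measured by sandwich ELISA (pAb40 capture, biotinylated 6E10 detection, europium time-resolved fluorescence); IC50 from percent inhibition.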
# [3] = target: T1, Cathepsin D (Cat D) (Homo sapiens, UniProt P07339); assay: In vitro enzymatic Cathepsin D (Cat D) FRET assay; type: biochemical; details: read-out: CatD IC50
# T1 construct: Recombinant Cat D was expressed in CHO cells; made in house; host or cells: CHO cells
# T1 sequence (P07339 65-412, species assumed): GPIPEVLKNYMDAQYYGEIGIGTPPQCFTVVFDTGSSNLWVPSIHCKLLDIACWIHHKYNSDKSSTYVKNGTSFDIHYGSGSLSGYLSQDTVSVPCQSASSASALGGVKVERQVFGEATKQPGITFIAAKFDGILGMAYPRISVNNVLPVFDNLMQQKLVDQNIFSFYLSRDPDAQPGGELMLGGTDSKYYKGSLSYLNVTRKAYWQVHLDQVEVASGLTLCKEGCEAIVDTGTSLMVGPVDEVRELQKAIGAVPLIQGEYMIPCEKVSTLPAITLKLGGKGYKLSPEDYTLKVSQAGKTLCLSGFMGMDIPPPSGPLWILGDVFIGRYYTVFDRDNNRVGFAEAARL
# In short: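 Recombinant Cat D expressed in CHO cells, used at 9 nM and pre-incubated one hour with serially diluted inhibitor in DMSO. Peptide substrate carries a fluorophore and quencher flanking the cleavage site; reaction stopped with Tris buffer raising pH to neutrality, then fluorescence read.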
# Chain of Beta Secretase enzyme (BACE1) (P56817 46-501): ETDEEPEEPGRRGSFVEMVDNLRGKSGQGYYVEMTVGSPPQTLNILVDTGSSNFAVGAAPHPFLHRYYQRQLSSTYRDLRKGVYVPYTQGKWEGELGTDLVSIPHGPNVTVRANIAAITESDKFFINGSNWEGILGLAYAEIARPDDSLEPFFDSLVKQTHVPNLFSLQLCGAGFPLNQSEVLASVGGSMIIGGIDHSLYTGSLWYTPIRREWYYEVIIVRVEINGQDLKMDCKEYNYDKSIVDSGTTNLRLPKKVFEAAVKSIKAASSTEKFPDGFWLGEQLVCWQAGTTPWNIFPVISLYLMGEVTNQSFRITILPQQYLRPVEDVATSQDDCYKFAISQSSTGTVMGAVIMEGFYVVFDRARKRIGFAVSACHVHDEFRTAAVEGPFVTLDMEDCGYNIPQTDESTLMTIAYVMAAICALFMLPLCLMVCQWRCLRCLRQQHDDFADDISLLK
Compound,pIC50 ([1]; average IC50),"pIC50 ([2]; average IC50, HEK cells)",pIC50 [3],pIC50 [1],pIC50 [2],"pIC50 ([1]; average IC50, enzyme assay)","pIC50 ([2]; average IC50, cell assay)"
"C[C@]1(c2cc(NC(=O)c3ccc(Cl)cn3)ccc2F)N=C(N)C2(CC2)S(=O)(=O)[C@H]1F [Example 201, N-(3-((5R,6R)-8-amino-5-fluoro-6-methyl-4,4-dioxido-4-thia-7-azaspiro[2.5]oct-7-en-6-yl)-4-fluorophenyl)-5-chloro-2-pyridinecarboxamide]",9.21,8.70,4.51,,,,
"Cc1cc(OC(F)F)cnc1C(=O)Nc1ccc(F)c([C@@]2(C)N=C(N)C3(CC3)S(=O)(=O)[C@@H]2F)c1 [Example 202, N-(3-((5S,6R)-8-amino-5-fluoro-6-methyl-4,4-dioxido-4-thia-7-azaspiro[2.5]oct-7-en-6-yl)-4-fluorophenyl)-5-(difluoromethoxy)-3-methyl-2-pyridinecarboxamide]",8.82,8.44,4.01,,,,
"Cc1cc(OC(F)F)cnc1C(=O)Nc1ccc(F)c([C@@]2(C)N=C(N)C3(CC3)S(=O)(=O)[C@H]2F)c1 [Example 203, N-(3-((5R,6R)-8-amino-5-fluoro-6-methyl-4,4-dioxido-4-thia-7-azaspiro[2.5]oct-7-en-6-yl)-4-fluorophenyl)-5-(difluoromethoxy)-3-methyl-2-pyridinecarboxamide]",9.32,8.64,4.52,,,,
"Cc1cc(Cl)cnc1C(=O)Nc1ccc(F)c([C@@]2(C)N=C(N)C3(CC3)S(=O)(=O)[C@@H]2F)c1 [Example 204, N-(3-((5S,6R)-8-amino-5-fluoro-6-methyl-4,4-dioxido-4-thia-7-azaspiro[2.5]oct-7-en-6-yl)-4-fluorophenyl)-5-chloro-3-methylpicolinamide]",,,3.74,9.06,8.57,,
"Cc1cc(Cl)cnc1C(=O)Nc1ccc(F)c([C@@]2(C)N=C(N)C3(CC3)S(=O)(=O)[C@H]2F)c1 [Example 205, N-(3-((5R,6R)-8-amino-5-fluoro-6-methyl-4,4-dioxido-4-thia-7-azaspiro[2.5]oct-7-en-6-yl)-4-fluorophenyl)-5-chloro-3-methylpicolinamide]",,,4.55,9.36,8.59,,
"Cc1cc(C(F)F)cnc1C(=O)Nc1ccc(F)c([C@@]2(C)N=C(N)C3(CC3)S(=O)(=O)[C@@H]2F)c1 [Example 206, N-(3-((5S,6R)-8-amino-5-fluoro-6-methyl-4,4-dioxido-4-thia-7-azaspiro[2.5]oct-7-en-6-yl)-4-fluorophenyl)-5-(difluoromethyl)-3-methyl-2-pyridinecarboxamide]",8.72,8.27,3.71,,,,
"Cc1cc(C(F)F)cnc1C(=O)Nc1ccc(F)c([C@@]2(C)N=C(N)C3(CC3)S(=O)(=O)[C@H]2F)c1 [Example 207, N-(3-((5R,6R)-8-amino-5-fluoro-6-methyl-4,4-dioxido-4-thia-7-azaspiro[2.5]oct-7-en-6-yl)-4-fluorophenyl)-5-(difluoromethyl)-3-methyl-2-pyridinecarboxamide]",9.04,8.17,4.25,,,,
"COc1cnc2c(Nc3ccc(F)c([C@@]4(C)N=C(N)C5(CC5)S(=O)(=O)[C@H]4F)c3)nccc2n1 [Example 208, N-(3-((5R,6R)-8-amino-5-fluoro-6-methyl-4,4-dioxido-4-thia-7-azaspiro[2.5]oct-7-en-6-yl)-4-fluorophenyl)-2-methoxypyrido[3,4-b]pyrazin-5-amine]",> 8.70,7.97,3.16,,,,
"COc1cnc2c(Nc3ccc(F)c([C@@]4(C)N=C(N)C5(CC5)S(=O)(=O)[C@@H]4F)c3)nccc2n1 [Example 209, N-(3-((5S,6R)-8-amino-5-fluoro-6-methyl-4,4-dioxido-4-thia-7-azaspiro[2.5]oct-7-en-6-yl)-4-fluorophenyl)-2-methoxypyrido[3,4-b]pyrazin-5-amine]",8.07,7.07,3.80,,,,
"CC1(C)C(N)=N[C@](C)(c2cc(NC(=O)c3ccc(Cl)cc3)ccc2F)CS1(=O)=O [Example 212, N-(3-((3R)-5-amino-3,6,6-trimethyl-1,1-dioxido-3,6-dihydro-2H-1,4-thiazin-3-yl)-4-fluorophenyl)-4-chlorobenzamide]",,,3.50,,,7.99,7.63
"CC1(C)C(N)=N[C@](C)(c2cc(NC(=O)c3ccc(Cl)cc3F)ccc2F)CS1(=O)=O [Example 213, N-(3-((3R)-5-amino-3,6,6-trimethyl-1,1-dioxido-3,6-dihydro-2H-1,4-thiazin-3-yl)-4-fluorophenyl)-4-chloro-2-fluorobenzamide]",,,3.35,,,7.91,7.54
"Cc1cc(Cl)cnc1C(=O)Nc1ccc(F)c([C@@]2(CF)CS(=O)(=O)C3(CC3)C(N)=N2)c1 [Example 215, N-(3-((6R)-8-amino-6-(fluoromethyl)-4,4-dioxido-4-thia-7-azaspiro[2.5]oct-7-en-6-yl)-4-fluorophenyl)-5-chloro-3-methyl-2-pyridinecarboxamide]",6.67,6.04,3.36,,,,
"Cc1cc(Cl)cnc1C(=O)Nc1ccc(F)c([C@]2(CF)CS(=O)(=O)C3(CC3)C(N)=N2)c1 [Example 216, N-(3-((6S)-8-amino-6-(fluoromethyl)-4,4-dioxido-4-thia-7-azaspiro[2.5]oct-7-en-6-yl)-4-fluorophenyl)-5-chloro-3-methyl-2-pyridinecarboxamide]",9.27,8.36,3.88,,,,
"Cc1cc(OC(F)F)cnc1C(=O)Nc1ccc(F)c([C@]2(CF)CS(=O)(=O)C3(CC3)C(N)=N2)c1 [Example 217, N-(3-((6S)-8-amino-6-(fluoromethyl)-4,4-dioxido-4-thia-7-azaspiro[2.5]oct-7-en-6-yl)-4-fluorophenyl)-5-(difluoromethoxy)-3-methyl-2-pyridinecarboxamide]",8.92,8.21,4.33,,,,
"Cc1cc(OC(F)F)cnc1C(=O)Nc1ccc(F)c([C@@]2(CF)CS(=O)(=O)C3(CC3)C(N)=N2)c1 [Example 218, N-(3-((6R)-8-amino-6-(fluoromethyl)-4,4-dioxido-4-thia-7-azaspiro[2.5]oct-7-en-6-yl)-4-fluorophenyl)-5-(difluoromethoxy)-3-methyl-2-pyridinecarboxamide]",6.82,6.08,3.20,,,,
"COc1cnc2c(Nc3cnc(F)c([C@]4(C)CS(=O)(=O)C(C)(C)C(N)=N4)c3)ncc(F)c2c1 [Example 219, N-(5-((3R)-5-amino-3,6,6-trimethyl-1,1-dioxido-3,6-dihydro-2H-1,4-thiazin-3-yl)-6-fluoro-3-pyridinyl)-5-fluoro-3-methoxy-1,7-naphthyridin-8-amine]",,,4.40,,,8.84,8.54
"CC1(C)C(N)=N[C@](C)(c2cc(Nc3ncc(F)c4cc(Cl)cnc34)cnc2F)CS1(=O)=O [Example 220, N-(5-((3R)-5-amino-3,6,6-trimethyl-1,1-dioxido-3,6-dihydro-2H-1,4-thiazin-3-yl)-6-fluoro-3-pyridinyl)-3-chloro-5-fluoro-1,7-naphthyridin-8-amine]",,,4.82,,,> 8.70,8.48
"CC1(C)C(N)=N[C@](C)(c2cc(Nc3ncc(F)c4cc(C#N)cnc34)cnc2F)CS1(=O)=O [Example 221, 8-((5-((3R)-5-amino-3,6,6-trimethyl-1,1-dioxido-3,6-dihydro-2H-1,4-thiazin-3-yl)-6-fluoro-3-pyridinyl)amino)-5-fluoro-1,7-naphthyridine-3-carbonitrile]",,,4.37,,,8.71,8.24
"COc1cnc2c(Nc3cnc(F)c([C@]4(C)CS(=O)(=O)C(C)(C)C(N)=N4)c3)nccc2n1 [Example 222, N-(5-((3R)-5-amino-3,6,6-trimethyl-1,1-dioxido-3,6-dihydro-2H-1,4-thiazin-3-yl)-6-fluoro-3-pyridinyl)-2-methoxypyrido[3,4-b]pyrazin-5-amine]",,,3.55,,,8.59,8.44
"CC1(C)C(N)=N[C@](C)(c2cc(Nc3nccc4cc(Cl)cnc34)cnc2F)CS1(=O)=O [Example 223, N-(5-((3R)-5-amino-3,6,6-trimethyl-1,1-dioxido-3,6-dihydro-2H-1,4-thiazin-3-yl)-6-fluoro-3-pyridinyl)-3-chloro-1,7-naphthyridin-8-amine]",,,4.62,,,9.09,8.27
"CC1(C)C(N)=N[C@](C)(c2cc(Nc3nccc4nc(C(F)(F)F)cnc34)cnc2F)CS1(=O)=O [Example 224, N-(5-((3R)-5-amino-3,6,6-trimethyl-1,1-dioxido-3,6-dihydro-2H-1,4-thiazin-3-yl)-6-fluoro-3-pyridinyl)-2-(trifluoromethyl)pyrido[3,4-b]pyrazin-5-amine]",,,3.34,,,7.80,7.40
"CC1(C)C(N)=N[C@](C)(c2cc(Nc3ncnc4cc(Cl)cnc34)cnc2F)CS1(=O)=O [Example 225, N-(5-((3R)-5-amino-3,6,6-trimethyl-1,1-dioxido-3,6-dihydro-2H-1,4-thiazin-3-yl)-6-fluoro-3-pyridinyl)-7-chloropyrido[3,2-d]pyrimidin-4-amine]",,,4.48,,,8.48,7.91

# Reference: patent US20140107109A1, “AMINO-DIHYDROTHIAZINE AND AMINO-DIOXIDO DIHYDROTHIAZINE COMPOUNDS AS BETA-SECRETASE ANTAGONISTS AND METHODS OF USE” (Amgen Inc., priority 2012, published 2014)
